Measurements taken from article doi:10.1101/2025.01.28.635346v1 (bioRxiv, 2025).
Bridge positions count the residues as written; N and C are the ends. Side chains are listed from the residue outwards. Peptide text beside a SMILES is read from it. * marks the point of attachment. Butanoyl(4-(4-I-phenyl)) = O=C(CCCc1ccc(I)cc1)*; PEG2 = NCCOCCOCCC(=O)O

Columns and labels:
[1] = Plasma protein binding, rapid equilibrium dialysis, mouse plasma; type: in vitro ADME; conditions: for Plasma protein binding, %Recovery: mouse plasma, RED, 2 μM, 4 h, 37°C; for fraction unbound at 4 h, 2 μM: mouse, plasma, pH 7.4
[2] = Plasma stability, mouse plasma; type: in vitro ADME
EDNRA = target: T1, EDNRA (Homo sapiens, UniProt P25101); assay: Safetyscan47 GPCR Calcium Flux, Agonist; type: cell-based; conditions: for Emax: read-out: Max Response
T1 sequence (P25101 21-427): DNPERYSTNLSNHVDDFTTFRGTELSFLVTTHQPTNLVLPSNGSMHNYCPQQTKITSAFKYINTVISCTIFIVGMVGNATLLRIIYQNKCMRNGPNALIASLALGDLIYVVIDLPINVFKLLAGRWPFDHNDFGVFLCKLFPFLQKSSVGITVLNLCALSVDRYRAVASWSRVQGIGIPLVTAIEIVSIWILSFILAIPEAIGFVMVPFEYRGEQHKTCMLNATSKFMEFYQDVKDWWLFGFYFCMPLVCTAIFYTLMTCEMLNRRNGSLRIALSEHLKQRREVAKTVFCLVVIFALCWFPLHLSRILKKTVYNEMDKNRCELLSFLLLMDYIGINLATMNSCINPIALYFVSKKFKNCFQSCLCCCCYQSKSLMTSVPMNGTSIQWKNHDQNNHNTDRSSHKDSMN

HRH1 = HRH1 (Homo sapiens, UniProt P35367); assay: Safetyscan47 GPCR Calcium Flux, Antagonist; type: cell-based; conditions: for Emax: read-out: Max Response
Sequence of HRH1 (P35367 whole entry): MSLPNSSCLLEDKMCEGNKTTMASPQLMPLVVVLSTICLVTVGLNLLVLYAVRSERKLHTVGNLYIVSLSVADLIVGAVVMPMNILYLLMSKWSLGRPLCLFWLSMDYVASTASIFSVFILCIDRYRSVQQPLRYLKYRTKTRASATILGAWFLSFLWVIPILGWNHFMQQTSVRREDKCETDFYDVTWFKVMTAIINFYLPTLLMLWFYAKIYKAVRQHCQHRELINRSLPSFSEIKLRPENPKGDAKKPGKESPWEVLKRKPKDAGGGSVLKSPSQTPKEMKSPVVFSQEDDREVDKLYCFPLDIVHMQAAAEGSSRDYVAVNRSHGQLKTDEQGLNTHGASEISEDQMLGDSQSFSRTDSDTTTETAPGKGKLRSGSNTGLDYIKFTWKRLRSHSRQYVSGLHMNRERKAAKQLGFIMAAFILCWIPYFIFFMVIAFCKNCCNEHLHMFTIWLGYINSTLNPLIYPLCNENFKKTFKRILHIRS

PDE3A = PDE3A (Homo sapiens, UniProt Q14432); assay: Safetyscan47 Non-Kinase Enzymes Enzymatic, Inhibitor; type: biochemical; conditions: for Emax: read-out: Max Response
OPRM1 = OPRM1 (Homo sapiens, UniProt P35372); assay: Safetyscan47 GPCR cAMP, Antagonist; type: cell-based; conditions: for Emax: OPRM1, read-out: Max Response
Sequence of OPRM1 (P35372 whole entry): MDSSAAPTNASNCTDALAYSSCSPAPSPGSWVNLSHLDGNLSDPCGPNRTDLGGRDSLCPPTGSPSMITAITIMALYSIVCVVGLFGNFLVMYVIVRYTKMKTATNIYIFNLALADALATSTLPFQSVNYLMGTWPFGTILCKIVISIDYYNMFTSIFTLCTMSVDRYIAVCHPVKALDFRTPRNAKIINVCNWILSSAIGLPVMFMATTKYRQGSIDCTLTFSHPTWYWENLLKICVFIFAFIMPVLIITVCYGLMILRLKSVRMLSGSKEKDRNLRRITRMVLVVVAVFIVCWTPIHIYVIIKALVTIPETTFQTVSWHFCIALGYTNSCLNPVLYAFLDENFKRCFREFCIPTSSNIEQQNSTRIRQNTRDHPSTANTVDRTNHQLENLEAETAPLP

CNR1 = CNR1 (Homo sapiens, UniProt P21554); assay: Safetyscan47 GPCR cAMP, Antagonist; type: cell-based; conditions: for Emax: read-out: Max Response
Sequence of CNR1 (P21554 whole entry): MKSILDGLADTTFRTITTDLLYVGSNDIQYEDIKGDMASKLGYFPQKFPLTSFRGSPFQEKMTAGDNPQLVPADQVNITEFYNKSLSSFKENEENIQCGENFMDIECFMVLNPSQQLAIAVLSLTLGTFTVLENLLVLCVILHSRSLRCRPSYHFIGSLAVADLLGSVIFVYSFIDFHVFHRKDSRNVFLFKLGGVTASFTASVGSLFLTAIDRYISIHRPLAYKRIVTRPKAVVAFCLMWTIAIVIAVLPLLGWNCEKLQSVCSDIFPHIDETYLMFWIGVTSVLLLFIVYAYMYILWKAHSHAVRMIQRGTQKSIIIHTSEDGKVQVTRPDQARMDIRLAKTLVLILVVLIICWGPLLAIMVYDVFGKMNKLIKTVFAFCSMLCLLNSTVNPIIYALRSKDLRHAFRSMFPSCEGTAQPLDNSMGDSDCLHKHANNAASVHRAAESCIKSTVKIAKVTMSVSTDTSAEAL

nAChR(a4/b2) = nAChR(a4/b2) (Homo sapiens, UniProt P17787+P43681); assay: Safetyscan47 Ion Channel, Blocker; type: cell-based; conditions: for Emax: read-out: Max Response
Sequence of nAChR(a4/b2) (P43681 29-627 limits assumed): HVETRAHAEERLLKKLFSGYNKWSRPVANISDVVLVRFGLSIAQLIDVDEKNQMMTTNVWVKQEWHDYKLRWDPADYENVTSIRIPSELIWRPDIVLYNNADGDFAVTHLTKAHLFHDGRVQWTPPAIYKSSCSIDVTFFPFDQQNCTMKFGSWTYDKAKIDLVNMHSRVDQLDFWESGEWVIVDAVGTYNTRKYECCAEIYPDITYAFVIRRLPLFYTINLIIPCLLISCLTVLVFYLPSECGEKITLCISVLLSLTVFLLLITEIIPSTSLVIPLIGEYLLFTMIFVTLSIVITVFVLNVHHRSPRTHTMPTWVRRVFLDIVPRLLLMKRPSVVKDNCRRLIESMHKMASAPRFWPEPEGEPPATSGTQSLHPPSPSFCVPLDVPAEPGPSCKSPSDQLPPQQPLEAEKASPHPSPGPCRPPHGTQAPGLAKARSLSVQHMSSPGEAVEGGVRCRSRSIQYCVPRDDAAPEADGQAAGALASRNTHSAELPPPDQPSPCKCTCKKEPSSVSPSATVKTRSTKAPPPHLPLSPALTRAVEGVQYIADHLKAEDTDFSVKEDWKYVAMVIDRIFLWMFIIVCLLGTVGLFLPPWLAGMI
Sequence of nAChR(a4/b2) (P17787 26-502): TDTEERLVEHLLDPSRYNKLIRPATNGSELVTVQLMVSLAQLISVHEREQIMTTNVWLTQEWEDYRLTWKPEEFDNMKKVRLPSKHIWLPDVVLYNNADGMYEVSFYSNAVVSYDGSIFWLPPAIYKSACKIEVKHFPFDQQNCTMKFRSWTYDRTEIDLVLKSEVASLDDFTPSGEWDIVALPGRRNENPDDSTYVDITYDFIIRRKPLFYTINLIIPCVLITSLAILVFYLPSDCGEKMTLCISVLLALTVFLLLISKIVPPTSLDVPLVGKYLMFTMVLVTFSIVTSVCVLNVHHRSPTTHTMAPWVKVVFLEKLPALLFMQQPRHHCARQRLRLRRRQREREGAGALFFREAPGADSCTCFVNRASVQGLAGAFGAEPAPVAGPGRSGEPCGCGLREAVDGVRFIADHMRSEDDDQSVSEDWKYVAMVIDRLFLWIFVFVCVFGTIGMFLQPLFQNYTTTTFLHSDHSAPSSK

HTR1A = target: T2, HTR1A (Homo sapiens, UniProt P08908); assay: Safetyscan47 GPCR cAMP, Agonist; type: cell-based; conditions: for Emax: read-out: Max Response
T2 sequence (P08908 1-422): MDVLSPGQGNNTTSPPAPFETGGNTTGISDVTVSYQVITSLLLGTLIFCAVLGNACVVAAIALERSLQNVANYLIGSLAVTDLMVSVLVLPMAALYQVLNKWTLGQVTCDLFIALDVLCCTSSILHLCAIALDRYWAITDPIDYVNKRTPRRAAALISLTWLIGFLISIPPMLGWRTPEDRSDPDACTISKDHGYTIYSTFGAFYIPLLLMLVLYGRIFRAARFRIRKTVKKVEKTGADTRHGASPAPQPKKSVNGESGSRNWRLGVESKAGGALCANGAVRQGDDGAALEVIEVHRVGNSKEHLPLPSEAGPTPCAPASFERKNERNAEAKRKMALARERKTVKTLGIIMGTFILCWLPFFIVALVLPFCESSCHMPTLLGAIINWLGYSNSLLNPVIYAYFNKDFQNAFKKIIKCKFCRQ

OPRD1 = OPRD1 (Homo sapiens, UniProt P41143); assay: Safetyscan47 GPCR cAMP, Antagonist; type: cell-based; conditions: for Emax: read-out: Max Response
Sequence of OPRD1 (P41143 whole entry): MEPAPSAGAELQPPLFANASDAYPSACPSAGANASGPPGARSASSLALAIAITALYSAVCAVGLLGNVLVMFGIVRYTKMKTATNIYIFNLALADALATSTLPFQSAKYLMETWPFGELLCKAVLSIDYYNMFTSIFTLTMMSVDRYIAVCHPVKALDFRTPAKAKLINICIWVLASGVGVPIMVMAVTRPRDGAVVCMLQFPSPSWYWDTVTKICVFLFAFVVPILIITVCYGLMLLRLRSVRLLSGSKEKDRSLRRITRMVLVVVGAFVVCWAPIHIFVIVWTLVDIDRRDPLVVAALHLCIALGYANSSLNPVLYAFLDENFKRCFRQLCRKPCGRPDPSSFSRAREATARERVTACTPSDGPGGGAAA

CHRM3 = CHRM3 (Homo sapiens, UniProt P20309); assay: Safetyscan47 GPCR Calcium Flux, Antagonist; type: cell-based; conditions: for Emax: read-out: Max Response
KvLQT1/minK = KvLQT1/minK (Homo sapiens, UniProt P15382+P51787); assay: Safetyscan47 Ion Channel, Blocker; type: cell-based; conditions: for Emax: read-out: Max Response
Sequence of KvLQT1/minK (P51787 whole entry): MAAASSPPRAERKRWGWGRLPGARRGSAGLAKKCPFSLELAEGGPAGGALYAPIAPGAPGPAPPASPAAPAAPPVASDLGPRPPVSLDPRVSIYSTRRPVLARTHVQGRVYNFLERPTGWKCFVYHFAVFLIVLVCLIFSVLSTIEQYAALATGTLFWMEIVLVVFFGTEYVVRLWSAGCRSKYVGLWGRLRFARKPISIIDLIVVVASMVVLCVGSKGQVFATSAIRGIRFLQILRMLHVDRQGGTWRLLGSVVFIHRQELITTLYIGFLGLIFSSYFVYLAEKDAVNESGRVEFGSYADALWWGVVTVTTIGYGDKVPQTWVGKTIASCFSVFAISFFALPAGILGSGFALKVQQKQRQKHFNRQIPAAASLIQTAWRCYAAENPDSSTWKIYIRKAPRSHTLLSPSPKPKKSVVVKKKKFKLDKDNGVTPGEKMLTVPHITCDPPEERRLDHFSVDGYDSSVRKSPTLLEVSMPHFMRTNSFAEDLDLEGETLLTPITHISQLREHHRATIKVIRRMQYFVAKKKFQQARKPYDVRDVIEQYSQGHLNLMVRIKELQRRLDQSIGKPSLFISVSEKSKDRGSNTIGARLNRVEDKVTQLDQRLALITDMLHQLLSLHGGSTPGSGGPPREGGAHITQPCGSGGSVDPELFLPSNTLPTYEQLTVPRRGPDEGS

DRD1 = DRD1 (Homo sapiens, UniProt P21728); assay: Safetyscan47 GPCR cAMP, Agonist; type: cell-based; conditions: for Emax: read-out: Max Response
Sequence of DRD1 (P21728 whole entry): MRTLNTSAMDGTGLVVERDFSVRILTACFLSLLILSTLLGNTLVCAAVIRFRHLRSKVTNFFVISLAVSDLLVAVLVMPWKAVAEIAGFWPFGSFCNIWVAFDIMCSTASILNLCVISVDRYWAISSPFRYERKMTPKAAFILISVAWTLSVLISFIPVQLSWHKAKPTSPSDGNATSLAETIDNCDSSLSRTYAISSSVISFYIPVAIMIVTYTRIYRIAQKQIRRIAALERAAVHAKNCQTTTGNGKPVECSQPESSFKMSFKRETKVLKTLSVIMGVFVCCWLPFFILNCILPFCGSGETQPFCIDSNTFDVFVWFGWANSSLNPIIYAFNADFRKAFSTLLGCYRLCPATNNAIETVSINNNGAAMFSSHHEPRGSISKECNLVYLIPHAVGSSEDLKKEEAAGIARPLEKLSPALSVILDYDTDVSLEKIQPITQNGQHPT

LCK = LCK (Homo sapiens, UniProt P06239); assay: Safetyscan47 Kinases Binding, Inhibitor; conditions: for Emax: read-out: Max Response
Sequence of LCK (P06239 whole entry): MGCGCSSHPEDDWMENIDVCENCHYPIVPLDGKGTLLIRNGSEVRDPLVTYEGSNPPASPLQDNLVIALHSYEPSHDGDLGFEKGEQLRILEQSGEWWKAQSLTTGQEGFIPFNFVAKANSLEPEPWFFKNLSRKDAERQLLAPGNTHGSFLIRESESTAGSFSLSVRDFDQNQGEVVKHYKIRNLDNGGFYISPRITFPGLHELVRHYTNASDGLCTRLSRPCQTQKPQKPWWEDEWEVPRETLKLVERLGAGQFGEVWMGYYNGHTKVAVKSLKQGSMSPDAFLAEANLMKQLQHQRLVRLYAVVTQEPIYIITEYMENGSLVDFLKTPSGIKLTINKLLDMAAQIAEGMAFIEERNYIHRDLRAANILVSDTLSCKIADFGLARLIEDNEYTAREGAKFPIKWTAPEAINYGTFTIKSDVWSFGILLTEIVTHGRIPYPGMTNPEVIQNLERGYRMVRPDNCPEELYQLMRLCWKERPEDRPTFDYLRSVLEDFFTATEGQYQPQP

| SMILES | Plasma protein binding, %Recovery [1] | fraction unbound at 4 h, 2 μM [1] | remaining at 0.5 h, 2 μM [2] | remaining at 4 h, 2 μM [2] | EC50 (EDNRA) | Emax (EDNRA) | IC50 (HRH1) | Emax (HRH1) | IC50 (PDE3A) | Emax (PDE3A) | IC50 (OPRM1) | Emax (OPRM1) | IC50 (CNR1) | Emax (CNR1) | IC50 (nAChR(a4/b2)) | Emax (nAChR(a4/b2)) | EC50 (HTR1A) | Emax (HTR1A) | Emax (OPRD1) | IC50 (CHRM3) | further results |
| --- | --- | --- | --- | --- | --- | --- | --- | --- | --- | --- | --- | --- | --- | --- | --- | --- | --- | --- | --- | --- | --- |
| CC[C@H](C)[C@H](NC(=O)[C@H](CC(C)C)NC(=O)[C@H](CC(=O)O)NC(=O)CNC(=O)[C@H](CCCNC(=N)N)NC(=O)[C@@H](NC(=O)[C@H](Cc1ccccc1)NC(=O)[C@H](Cc1ccc(O)cc1)NC(=O)[C@@H]1CCC(=O)NCC(=O)NCC(=O)N[C@@H](CCCNC(=N)N)C(=O)NCC(=O)N[C@@H](Cc2c[nH]cn2)C(=O)N[C@@H](C(C)C)C(=O)N2CCC[C@H]2C(=O)N1)C(C)C)C(=O)N[C@@H](CO)C(=O)N[C@@H](Cc1ccccc1)C(=O)N[C@@H](Cc1ccc(O)cc1)C(=O)N[C@@H](CCCCN)C(=O)O [lassotide 36] (GGRGHVPEYFVRGDLISFYK-OH; lactam N-8) | 91% | 0.222 | 88.7% | 56.1% | > 45 µM | 1.75% | > 45 µM | 0.3% | > 45 µM | 0% | > 45 µM | 0% | > 45 µM | 9.79% | > 45 µM | 2.98% | > 45 µM | 0% | 0% | > 45 µM | half-life at 2 μM [2]: 306 min; IC50 (OPRD1; RC50, Antagonist, Result Type IC50): > 45 µM; Emax (CHRM3): 3.06%; IC50 (KvLQT1/minK): > 45 µM; Emax (KvLQT1/minK): 1.8%; EC50 (DRD1): > 45 µM; Emax (DRD1): 0%; IC50 (LCK): > 45 µM; Emax (LCK): 0% |
| CC[C@H](C)[C@H](NC(=O)[C@H](CC(C)C)NC(=O)[C@H](CC(=O)O)NC(=O)CNC(=O)[C@H](CCCNC(=N)N)NC(=O)[C@@H](NC(=O)[C@H](Cc1ccccc1)NC(=O)[C@H](Cc1ccc(O)cc1)NC(=O)[C@@H]1CCC(=O)NCC(=O)NCC(=O)N[C@@H](CCCNC(=N)N)C(=O)NCC(=O)N[C@@H](Cc2c[nH]cn2)C(=O)N[C@@H](C(C)C)C(=O)N2CCC[C@H]2C(=O)N1)C(C)C)C(=O)N[C@@H](CO)C(=O)N[C@@H](Cc1ccccc1)C(=O)N[C@@H](Cc1ccc(O)cc1)C(=O)N[C@@H](CCCCNC(=O)CCOCCOCCNC(=O)CCCc1ccc(I)cc1)C(=O)O [lassotide 47] (GGRGHVPEYFVRGDLISFYK([PEG2-Butanoyl(4-(4-I-phenyl))])-OH; lactam N-8) | 100% | 0.005 | 86.3% | 86.9% | > 45 µM | 2.94% | > 45 µM | 0% | > 45 µM | 0.63% | > 45 µM | 0% | > 45 µM | 0% | > 45 µM | 4.35% | > 45 µM | 30.1% | 56.4% | > 45 µM | IC50 (OPRD1; RC50 (IC50), GPCR cAMP, Antagonist, OPRD1): 40.3 µM; Emax (CHRM3): 0.91%; IC50 (KvLQT1/minK): > 45 µM; Emax (KvLQT1/minK): 24.8%; EC50 (DRD1): > 45 µM; Emax (DRD1): 0%; IC50 (LCK): > 45 µM; Emax (LCK): 0% |
